{"source": "paper PMC7055300", "about": "“Theileria parasites subvert E2F signaling to stimulate leukocyte proliferation” (Scientific Reports, 2020)", "key": {"uninfected BL20 cells": {"tested_on": "uninfected BL20 cells", "assay": "Cell proliferation, uninfected B cells (BL20), hemacytometer count", "format": "cell-based, bovine", "details": "uninfected BL20, HLM006474 10 μM in DMSO, average of 3 independent experiments", "description": "(a) TpMD409B.2 cells were transfected with E2F-luc (WT = wild-type E2F binding construct), or mutated E2F-luc constructs (labeled ‘mutated’) together with a CMV-lacZ plasmid to normalize for transfection efficiency. Luciferase and β-galactosidase activities were measured 24 hrs after transfection. E2F-luc relative luciferase activity normalized to mE2F-luc. Shown is the average of 3 independent experiments with standard deviation. BL20 or TBL20 cells were treated with (b) 1μM of penetrating peptides ([…]-K(FITC)) containing the TpGcpE LXCXE motif, or an LXNXE control ([…]-K(FITC)) or (c) E2F inhibitor or DMSO control, and then counted by hemacytometer after the indicated timepoints. Shown is the average of 3 independent experiments with standard deviation. Then, either (d) virulent Ode T. annulata-transformed macrophages, or (e) BL20/TBL20 T. annulata-transformed cells were transfected with E2F-luc plasmid (or mutated E2F-luc as in (c)) and incubated for 24 hrs at 37 °C. Then, cells were treated with penetrating peptides as in (b) for 2 hrs and luciferase activity was quantified. Data shown are representative of three independent experiments done with biological duplicates, with mean + standard deviation (*P-value < 0.05 compared to untreated; ^‡P-value < 0.05 compared to its respective BL20 control). […]"}, "BL20/TBL20 cells": {"tested_on": "BL20/TBL20 cells", "format": "cell-based, bovine", "details": "HLM006474 10 μM; data not shown", "description": "Since the LXCXE peptide can induce E2F activity, we investigated whether it could, on its own, increase bovine leukocyte proliferation. To extend our observations to T. annulata-infected leukocytes, we incubated T. annulata-infected B cells with WT or mutated LXNXE peptides and counted cell numbers at 24 h and 48 h.\nThe amino acid sequence of RB-1 based on the parasite sequence ([…]) was synthesized. Cysteine in wild type RB1 was replaced by an Asparagine (N; in bold […]). The penetrating peptide to facilitate cell entry is underlined. 3 different concentrations of peptides were used for 2 h to determine the minimum effective concentration (1 μM) with minimum toxic effect, which was used to perform each experiment as indicated."}, "[1]": {"tested_on": "T. annulata-infected TBL20 cells", "assay": "Cell proliferation, T. annulata-infected B cells (TBL20), hemacytometer count", "format": "cell-based, bovine", "details": "T. annulata-infected TBL20, HLM006474 10 μM in DMSO, average of 3 independent experiments", "description": "(a) TpMD409B.2 cells were transfected with E2F-luc (WT = wild-type E2F binding construct), or mutated E2F-luc constructs (labeled ‘mutated’) together with a CMV-lacZ plasmid to normalize for transfection efficiency. Luciferase and β-galactosidase activities were measured 24 hrs after transfection. E2F-luc relative luciferase activity normalized to mE2F-luc. Shown is the average of 3 independent experiments with standard deviation. BL20 or TBL20 cells were treated with (b) 1μM of penetrating peptides ([…]-K(FITC)) containing the TpGcpE LXCXE motif, or an LXNXE control ([…]-K(FITC)) or (c) E2F inhibitor or DMSO control, and then counted by hemacytometer after the indicated timepoints. Shown is the average of 3 independent experiments with standard deviation. Then, either (d) virulent Ode T. annulata-transformed macrophages, or (e) BL20/TBL20 T. annulata-transformed cells were transfected with E2F-luc plasmid (or mutated E2F-luc as in (c)) and incubated for 24 hrs at 37 °C. Then, cells were treated with penetrating peptides as in (b) for 2 hrs and luciferase activity was quantified. Data shown are representative of three independent experiments done with biological duplicates, with mean + standard deviation (*P-value < 0.05 compared to untreated; ^‡P-value < 0.05 compared to its respective BL20 control).\nThe TpMD409.B2 cell line is a T. parva Muguga-infected B-cell clone (B2) whose establishment, phenotypic characteristics and culture conditions have been described[25]–[27]. BL20 cells are a retrovirus-transformed B cell line isolated from an infected cow. To eliminate the parasite, cells were treated for the indicated time with buparvaquone (50 ng/ml, 1 mg/ml stock in ethanol; Sigma). To inhibit E2F activity, cells were treated for the indicated time with HLM006474 (10 μM in DMSO, Sigma), or DMSO (10μM; Sigma) as a control. The T. annulata-infected cell lines BL20 (B cell), as well as Ode (macrophage) cell lines are well described and characterized.\nThe amino acid sequence of RB-1 based on the parasite sequence ([…]) was synthesized. Cysteine in wild type RB1 was replaced by an Asparagine (N; in bold […]). The penetrating peptide to facilitate cell entry is underlined."}, "[2]": {"target": "T1, Retinoblastoma-1 (RB) pocket domain (Homo sapiens, UniProt P06400)", "T1 construct": "Recombinant, purified RB pocket domain was coupled to the surface of the sensor chip; purchased LDBiopharma HTF-1035", "T1 sequence (P06400 373-771 limits assumed)": "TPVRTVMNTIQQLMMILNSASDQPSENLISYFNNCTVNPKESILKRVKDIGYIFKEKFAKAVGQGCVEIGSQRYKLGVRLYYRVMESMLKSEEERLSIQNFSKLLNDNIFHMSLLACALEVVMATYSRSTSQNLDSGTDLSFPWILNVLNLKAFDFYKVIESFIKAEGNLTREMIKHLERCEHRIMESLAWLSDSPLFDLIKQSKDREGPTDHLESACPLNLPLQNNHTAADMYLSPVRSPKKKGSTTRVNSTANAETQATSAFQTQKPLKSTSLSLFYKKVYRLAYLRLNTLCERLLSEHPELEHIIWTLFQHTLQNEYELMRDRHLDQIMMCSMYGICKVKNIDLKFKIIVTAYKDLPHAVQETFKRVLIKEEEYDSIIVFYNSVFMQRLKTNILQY", "assay": "Surface plasmon resonance binding to RB pocket domain", "details": "SPR, RB pocket domain on sensor chip; sequence-scrambled peptides as negative controls", "source_text": "Since the proliferation of T. parva-infected host cells is thought to be critical for the pathogenesis of infection, we investigated whether synthesized peptides, each 9 to 19 amino acids long and containing these 15 T. parva motifs, could bind to RB (Supplementary Table 1). Surface plasmon resonance (SPR) was used to screen these peptides for specific RB1 pocket domain-binding activity. Recombinant, purified RB pocket domain was coupled to the surface of the sensor chip, and purified peptides were introduced at various concentrations to quantify kinetics if response curves indicated a detectable protein-protein interaction. Sequence-scrambled peptides were used as negative controls to exclude false-positive signals.\nImmobilization of human RB1 protein to CM5 chip\nSurface preparation. […]\nKinetics analysis of binding. […] The analytes (60 µl each, 0–25 µM in HBS-EP buffer with 0.05% P20) were injected into flow cell and the association of analyte and ligand were recorded respectively by surface plasmon resonance (SPR) with a Biacore T200 (Biacore, Inc., New Jersey). […]\nData analysis. Sensorgrams of the interaction generated by the instrument were analyzed using the software BIAeval 3.2 (Biacore Inc., New Jersey). […]"}}, "note": "“Also recorded” adds a separate entry of the source.", "data": [{"compound": "CCOc1ccc(C(Nc2ccccn2)c2ccc3ccc(C)nc3c2O)cc1C", "note": "(stereo not drawn) [HLM006474, reference compound]", "values": [{"measurement": "proliferation with E2F inhibitor", "setting": "uninfected BL20 cells", "value": "not uninfected BL20 cells"}, {"measurement": "proliferation with E2F inhibitor", "setting": "uninfected BL20 cells; listed as HLM0006474", "value": "not uninfected bovine B cell lines"}, {"measurement": "dependence of the effect on cell death", "setting": "BL20/TBL20 cells", "value": "not dependent on cell death"}, {"measurement": "proliferation with E2F inhibitor", "setting": "[1]", "value": "specifically reduced the proliferation of T. annulata-infected TBL20 cells"}, {"measurement": "proliferation with E2F inhibitor", "setting": "[1]; listed as HLM0006474", "value": "specifically inhibit the proliferation of T. annulata-infected"}]}, {"compound": "RDELQGVIQLLYDRYNKYI [TpMuguga_02g02355, SPR screening peptide […] with an LXXLFD motif from TpMuguga_02g02355]", "values": [{"measurement": "RB binding in words", "setting": "[2]", "value": "bound the RB pocket domain with nanomolar affinity; also recorded: bind RB in a sequence-specific fashion"}]}]}
